Reference: patent publication US5352599A, “Co-enzyme-independent L-sorbosone dehydrogenase of gluconobacter oxydans: isolation, characterization, and cloning and autologus expression of the gene” (Hoffmann-La Roche Inc., priority 1988, dated 1994)

Columns and labels:
[1] = target: T1, membrane-bound L-sorbosone dehydrogenase from Gluconobacter oxydans IFO 12258, purified, coenzyme independent (Gluconacetobacter liquefaciens, UniProt Q44091); test: L-sorbosone dehydrogenase enzyme assay (DCIP reduction at 600 nm, 25° C.); format: biochemical
T1 construct: endogenous in cells; host or cells: Gluconobacter oxydans IFO 12258 (enzyme isolated from the strain itself)
T1 sequence (Q44091 1-449): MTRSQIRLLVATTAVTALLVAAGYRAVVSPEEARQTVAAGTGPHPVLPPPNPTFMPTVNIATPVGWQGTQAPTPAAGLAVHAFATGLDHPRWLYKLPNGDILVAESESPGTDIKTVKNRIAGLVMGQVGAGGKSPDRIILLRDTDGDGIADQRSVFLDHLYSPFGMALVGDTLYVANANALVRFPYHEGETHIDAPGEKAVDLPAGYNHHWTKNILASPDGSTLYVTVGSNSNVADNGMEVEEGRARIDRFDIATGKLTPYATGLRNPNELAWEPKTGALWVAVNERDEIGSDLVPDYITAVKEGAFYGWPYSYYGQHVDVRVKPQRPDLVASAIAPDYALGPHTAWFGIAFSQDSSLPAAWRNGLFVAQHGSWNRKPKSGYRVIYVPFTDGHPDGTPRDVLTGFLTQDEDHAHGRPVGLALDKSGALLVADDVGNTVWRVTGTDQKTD
Experimental: (§1) Enzyme assay was performed at 25° C. by measuring the decrease of absorbance at 600nm of DCIP spectrophotometrically. One unit of enzyme activity was defined as the amount of enzyme which catalyzed the reduction of 1 μmole of DCIP per minute.
(§2) The extinction coefficient of DCIP at pH 7.0 was taken as 9.45mM^-1. The basal reaction mixture is shown below. The mixture was prepared just before the assay.
(§3) A cuvette with 1cm light path contained 0.4ml of basal mixture, 20μl of 10mM phenazine methosulphate, 10μl of enzyme solution and 20μl of 110mM L-sorbosone solution in a final volume of 0.45ml. A reference cuvette contains all components except the substrate. The reaction was initiated by the addition of the substrate. Enzyme activity was measured as the initial reduction rate of DCIP.

[2] = substrate: O=CC(=O)[C@@H](O)[C@H](O)[C@@H](O)CO; test: as above; format: biochemical, Gluconobacter oxydans IFO 12258; details: other: pH7.0, purified enzyme, pH 7.0
Experimental: as §1, §2, §3

Which results are given for `O=C(O)CI` [ICH2 COOH, Monoiodoacetic acid]?
inhibition of the enzyme (in words) [1]: moderately inhibited; inhibition at 10000 µM ([1]; read-out: Relative activity (%) in presence of inhibitor): 64.3%

For `[N-]=[N+]=[N-].[Na+]` [NaN3], which “Relative activity (%) in presence of inhibitor” value ([1]; inhibitor 25 mM, L-Sorbosone as the substrate, None = 100) is on record?
The value was 89.4%.

B1: membrane-bound L-sorbosone dehydrogenase from Gluconobacter oxydans IFO 12258, purified, coenzyme independent (Gluconacetobacter liquefaciens) (protein)
chain: T1 sequence (Q44091 1-449)
notes: endogenous in cells; host or cells: Gluconobacter oxydans IFO 12258 (enzyme isolated from the strain itself)
B1 was tested. Which Km [2] did it give?
Its Km is 16.7 mM.
